Results reported in patent publication US8008074B2, “Compositions and methods for improving bone mass through modulation of receptors of PTH and fragments thereof” (The UAB Research Foundation, priority 2006, dated 2011).

Columns and labels:
PTH1R/LRP5/6 complex = target: T1, PTH1R/LRP5/6 complex (Rattus norvegicus, UniProt P25961); test: Co-immunoprecipitation of endogenous PTH1R with LRP5/6 in UMR-106 cells; type: cell-based; details: 5×10^−7 M PTH (1-84)
T1 construct: endogenous in cells; host or cells: UMR-106
T1 sequence (P25961 27-591): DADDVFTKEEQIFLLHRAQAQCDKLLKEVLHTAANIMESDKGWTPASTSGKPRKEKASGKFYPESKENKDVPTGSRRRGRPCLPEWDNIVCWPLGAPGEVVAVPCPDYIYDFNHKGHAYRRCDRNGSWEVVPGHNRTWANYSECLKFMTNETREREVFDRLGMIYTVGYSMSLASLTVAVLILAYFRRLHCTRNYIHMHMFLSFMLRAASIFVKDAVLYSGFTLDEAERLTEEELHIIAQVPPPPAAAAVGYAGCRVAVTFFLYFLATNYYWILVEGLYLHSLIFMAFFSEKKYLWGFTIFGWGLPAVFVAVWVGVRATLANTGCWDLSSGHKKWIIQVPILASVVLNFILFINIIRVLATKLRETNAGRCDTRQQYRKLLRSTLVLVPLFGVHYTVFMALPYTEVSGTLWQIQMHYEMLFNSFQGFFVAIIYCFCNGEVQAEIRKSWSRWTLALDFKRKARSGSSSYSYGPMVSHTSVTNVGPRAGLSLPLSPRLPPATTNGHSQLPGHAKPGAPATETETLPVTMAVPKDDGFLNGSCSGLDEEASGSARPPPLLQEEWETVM
Description: Endogenous LRP5 or LRP6 was coimmunoprecipitated with PTH1R in UMR 106 cells. UMR 106 cells were treated with 5×10^−7 M PTH (1-84) for indicated times. […] VSVG-tagged LRP6 was cotransfected into HEK 293 cells with HA-PTH1R, and the cells were treated with 5×10^−7 M PTH (1-84) for 1 hour. The LRP6-associated PTH ligand was determined by Western blotting of the anti-VSVG immunoprecipitates. […] VSVG-tagged LRP6, LRP6N, or LRP6C was cotransfected into HEK 293 cells with HA-PTH1R, and the cells were treated with or without 5×10^−7 M PTH (1-84) for 1 hour. The PTH1R-associated LRP6, LRP6N, or LRP6C was determined by Western blotting of the anti-HA immunoprecipitates, and the LRP6-, LRP6N- or LRP6C-associated PTH1R and PTH ligand was determined by Western blotting with an anti-VSVG antibody. […] The PTH1R-associated LRP6 was determined by Western blotting. […] The effect of LRP-6N on PTH-induced TCF4 activation was determined by luciferase assays.
To determine if PTH (1-84) induced the formation of a complex of endogenous PTH1R with LRP5/6, an immunoprecipitation assay in osteoblastic UMR-106 cells was used. […] The cell lysates isolated from transfected cells treated with or without PTH were subjected to immunoprecipitation with anti-PTH1R antibodies, and the immunocomplex was detected by Western blotting with a monoclonal antibody that recognizes both LRP5 and LRP6. […]

[1] = tested on: Wnt responsive luciferase reporter (TCF4-Luc); test: TCF4-Luc luciferase reporter assay in UMR 106 cells; type: cell-based; details: for TCF luciferase activity: 5×10^−7 M of indicated PTH ligands for 12 hours; for activation of TCF4-Luc reporter: 10^−7M PTH (1-84), 12 hours
LRP6/Axin binding = test: Axin-LRP6 binding immunoprecipitation assay; type: cell-based; details: HEK 293 cells cotransfected with LRP6, Axin and GSK3β, ligand for 1 hour
Axin = Axin protein levels; type: cell-based; details: cells overexpressing LRP6
Source text: Binding of Axin to phosphorylated LRP6 leads to rapid degradation. Then inhibition of Axin/LRP6 binding should […] degradation of Axin. Indeed, Axin degradation is reduced by both inhibitors (data not shown). […] PKA and PKC also were examined to determine whether they regulate PTH-induced PTH1R/LRP6 complex formation. […] Apparently, the receptor complex formation is independent of activation of PKA and PKC. Instead, it seems that activation of G protein-mediated PKA and PKC signaling is in parallel with the recruitment of LRP5/6 in PTH signaling. PKA and PKC activity is required for LRP5/6 phosphorylation and Axin/LRP6 binding.
Wnts induce binding of Axin to phosphorylated LRP6, and the membrane-bound Axin undergoes rapid protein dephosphorylation and degradation, which eventually leads to β-catenin stabilization Willert et al., 1999; Yamamoto et al., 1999).

β-catenin = β-catenin stabilization, Western blot of UMR 106 cell fractions; type: cell-based; details: UMR 106 cells; 5×10^−7 M PTH (1-84), 30 minutes
[2] = tested on: TGF-β-induced transcription activity; test: Smad binding response luciferase reporter (SBE-luc) in 293 cells; type: cell-based; details: TGF-β 2 ng/ml, 50 nM
Description: A Smad binding response luciferase reporter (SBE-luc) was transfected into 293 cells. TGF-β (2 ng/ml) was added in combination with different doses of PTH (1-34) or cPTH (39-84). Twenty-four hours after transfection, the cells were lysed and the luciferase signal was detected. Luciferase values shown in the figures are representative of transfection experiments performed in triplicate in at least three independent experiments. The relative increased fold of the luciferase activity stimulated by TGF-β in each cell line was calculated.
A Smad binding response luciferase reporter (SBE-luc) was introduced into the multi-cloning site of pcDNA3 (Invitrogen), and the resulting vector was transfected into 293 cells using Lipofectamine Plus reagent (Invitrogen, Cat. No. 10964-013). TGF-β (2 ng/ml) was added in combination with different doses of PTH (1-34) (50 nM) or cPTH (39-84) (50 nM). […] Forty-two hours after transfection, the cells were lysed, and the luciferase signal was detected using the Dual Luciferase assay kit (Promega) according to the manufacturer's instructions.
Luciferase values shown in the figures are representative of transfection experiments performed in triplicate in at least three independent experiments. The relative increased fold of the luciferase activity stimulated by TGF-β in each cell line was calculated.

β-catenin in osteoblasts [3] = test: β-catenin immunostaining of trabecular bone in mice, 28 days PTH; type: in vivo, mouse; details: for percentage of β-catenin positive osteoblasts: 28 days
Source text: (§1) Immunohistochemical staining of representative sections with antibody against β-catenin at 10× objective and 40× objective counterstained with hematoxylin from either primary spongliosa subjacent to the epiphyseal growth plates or Spongiosa subjacent to diaphyseal hematopoietic bone marrow of different time points after PTH single injection in rats. […] Each value is the mean±SEM of determinations in three independent slides of each animal and three animals of each group. Panels B and C show graphs of the expression of MPK1 mRNA and the ratio of RANKL/OPG as quantified by real-time PCR in cavaria tissue from the same animals. Panel D—Immunohistochemical β-catenin staining of representative sections were counterstained with hematoxylin from metaphyseal area of distal femurs of mice at six weeks of age. (i) vehicle control daily injection for 28 days; (ii) hPTH (1-34) 100 ng/g. b.w daily injection for 28 days; (iii) vehicle control continuous infusion with an osmotic pump; and (iv) hPTH (1-34) continuous infusion at 500 ng/h with an osmotic pump. Panel D is a graph showing the numbers of β-catenin-positive osteoblasts as a percent of total osteoblasts per field that were determined. Each value is the mean±SEM of determinations in three independent slides of each animal and three animals of each group.
(§2) The role of β-catenin in PTH-induced bone formation was then examined. PTH stimulates bone formation when injected daily, i.e. intermittent injection, but causes severe bone loss when infusion continuously. Mice were injected either daily or continuously by infusion with an osmotic pump for 28 days. […] Similar results were obtained in double labeling.

β-catenin in osteoblasts [4] = test: β-catenin immunostaining of femur and tibia after single PTH injection in rats; type: in vivo, rat
Source text: as §1
β-Catenin, activated by either Wnt or TGF signaling, stimulates proliferation of osteoprogenitors and bone formation. […] Therefore, the dynamics of β-catenin levels were determined at various time points after a single dose injection of PTH (1-34) in seven-month-old rats. Sections of femur and tibia were immunostained for HE, trichrome, and β-catenin. The first signs of β-catenin expression in osteoblasts appeared at 2 hours after PTH injection, reached a peak at 8 hours, and decreased at 24 hours. […] Specifically, 99.76% of osteoblasts at primary spongliosa subjacent to the epiphyseal growth plates were β-catenin positive, and 89.91% at spongiosa subjacent to diaphyseal hematopoietic bone marrow were β-catenin positive (FIG. 7A).
To further examine whether LRP5/6 mediates PTH-elevated β-catenin levels in vivo, trabecular bone sections were immunostained with the antibody against phosphorylated PPPSP motif. Formalin-fixed tissue sections of 5 μm thickness were deparaffinized in xylene and rehydrated in graded alcohols. Antigen retrieval was achieved by incubating tissue sections in boiling 10 mmol/L citrate buffer (pH 6.0) for 5 minutes in a microwave oven. All sections were then incubated with hydrogen peroxide for 5 minutes. Subsequently, sections were incubated with the primary antibodies against β-catenin or LRP6 1490 for 1 hour at room temperature. After rinsing the primary antibody in T-PBS, antibody detection was accomplished using the Super Sensitive biotin-streptavidin horseradish peroxidase detection kit (Biogenex, San Ramon, Calif.). The diaminobenzidine tetrachloride Super Sensitive substrate kit (Biogenex, San Ramon, Calif.) was used to visualize the antibody-antigen complex. The sections were then counterstained with hematoxylin. Appropriate negative controls, consisting of tissue sections of each case processed without the addition of primary antibody, were prepared along with positive multitissue control sections. Only those cases with greater than 10% immunohistochemical stains were considered as positive. Assessment of the immunohistochemical staining was performed independently by two pathologists. […]

[5] = Bone formation in mice, daily injection or continuous infusion for 28 days; type: in vivo, mouse
Source text: as §1, §2

[6] = rats, 8 hours after single injection of PTH (1-34)
[7] = seven-month-old rats, single dose injection of PTH (1-34)

## PTH (1-84): Full-length PTH or PTH ligand, 84 amino acids long, represented as 1-84
PTH1R/LRP5/6 complex
  interaction between endogenous LRP5/6 and PTH1R: induced the interaction between endogenous LRP5/6 and PTH1R in a time dependent manner
  time of peak of PTH-induced LRP5/6-PTH1R interaction: 1 h
[1]
  TCF luciferase activity: significantly elevated
  activation of TCF4-Luc reporter: activates the Wnt signaling pathway
LRP6/Axin binding
  Axin-LRP6 binding: induces LRP6/Axin binding
LRP6/Axin binding; listed as PTH1-84
  Axin-LRP6 binding: stimulated Axin-LRP6 binding
Axin
  Axin protein levels: further downregulated Axin protein levels
β-catenin
  β-catenin levels in cytosolic and nuclear fractions: stimulated the levels of β-catenin in both the cytoplasm and the nucleus

## cPTH (39-84): C-terminal fragment of PTH, amino acids 39-84 (APLAPRDAGSQRPRKKEDNVLVESHEKSLGEADKADVNVLTKAKSQ; Parathyroid hormone; UniProt P01270 70-115, looked up, fragment)
[1]
  TCF luciferase activity: only a marginal increase
[2]
  effect on TGF-β-induced transcription activity (SBE-luc): inhibited TGF-β-induced transcription activity

## PTH (1-34): N-terminal fragment of PTH, amino acids 1-34
β-catenin in osteoblasts [3]; PTH continuous infusion
  percentage of β-catenin positive osteoblasts: 23.54%
β-catenin in osteoblasts [3]; PTH continuous infusion, in comparison with control
  β-catenin in osteoblasts (immunostaining): reduced the level of β-catenin
β-catenin in osteoblasts [3]; PTH intermittent injection
  β-catenin in osteoblasts (immunostaining): significantly increased β-catenin in osteoblasts
  percentage of β-catenin positive osteoblasts: 96.03%
β-catenin in osteoblasts [3]; data not shown
  levels of β-catenin in osteocytes, osteoclasts, and bone marrow cells: remained barely detectable
β-catenin in osteoblasts [4]; [6]
  β-catenin positive osteoblasts at primary spongliosa subjacent to the epiphyseal growth plates: 99.76%
  β-catenin positive osteoblasts at spongiosa subjacent to diaphyseal hematopoietic bone marrow: 89.91%
β-catenin in osteoblasts [4]; [7]
  first signs of β-catenin expression in osteoblasts after PTH injection: 2 h
  peak of β-catenin expression in osteoblasts after PTH injection: 8 h
β-catenin in osteoblasts [4]; seven-month-old rats, single dose injection of PTH (1-34), 24 hours
  β-catenin expression in osteoblasts at 24 hours: decreased
[1]
  TCF luciferase activity: significantly elevated
  activation of TCF4-Luc reporter: activated the TCF4-Luc reporter
LRP6/Axin binding
  Axin-LRP6 binding: stimulated Axin-LRP6 binding
[5]; PTH continuous infusion
  osteoblast proliferation (BrdU labeling): reduced proliferation
[5]; PTH daily injection
  osteoblast proliferation (BrdU labeling): stimulated
[5]; PTH intermittent injection, data not shown
  mineralization in the trabecular and cortical bone matrix (von Kossa): increased
[5]; continuous infusion with osmotic pump for 28 days (500 ng/h), data not shown
  bone mineral density: decreased
[5]; daily injection for 28 days (100 ng/g b.w), data not shown
  bone mineral density: significantly increased
[5]; primary spongiosa of femur, data not shown
  osteoblast numbers per square millimeter tissue area (N. Ob/T.Ar): increased
[2]
  effect on TGF-β-induced transcription activity (SBE-luc): inhibited TGF-β-induced transcription activity
Axin
  Axin protein levels: further downregulated Axin protein levels
